How the values were obtained:
Format in all cases: in vivo
[1] = test system: ragweed (common ragweed, Ambrosia artemisiifolia); experiment: Test A preemergence soil spray, visual injury rating 0-100; details: 10 days
Method in brief: (§1)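 Grow plants in loam soil blended with sand. Apply formulated compound (non-phytotoxic solvent, surfactant) as a directed soil spray before emergence, or to plants at the one- to two-leaf stage after emergence. Hold in greenhouse 10 days, then rate injury visually versus untreated controls on a 0-100 scale.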

[2] = test system: wheat (Triticum aestivum); experiment: as above; details: 10 days
Method in brief: as §1

[3] = test system: blackgrass (Alopecurus myosuroides); experiment: as above; details: 10 days
Method in brief: as §1

[4] = test system: corn (Zea mays); experiment: as above; details: 10 days
Method in brief: as §1

[5] = test system: ryegrass, Italian (italian ryegrass, Lolium multiflorum); experiment: as above; details: 10 days
Method in brief: as §1

[6] = test system: palmer (palmer amaranth, palmer pigweed, Amaranthus palmeri); experiment: as above; details: 10 days
Method in brief: as §1

[7] = test system: green foxtail (Setaria viridis); experiment: as above; details: 10 days
Method in brief: as §1

[8] = test system: kochia (Bassia scoparia); experiment: as above; details: 10 days
Method in brief: as §1

[9] = test system: oat, wild (wild oat, Avena fatua); experiment: as above; details: 10 days
Method in brief: as §1

[10] = test system: barnyardgrass (Echinochloa crus-galli); experiment: as above; details: 10 days
Method in brief: as §1

[11] = test system: soybean (Glycine max); experiment: as above; details: 10 days
Method in brief: as §1

[12] = test system: ducksalad (Heteranthera limosa); experiment: Test B flooded paddy test, visual plant response rating 0-100; details: 250 g ai/ha, Flood, applied to paddy water, evaluated after 13 days
Method in brief: (§2)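 Plants were grown to the 2-leaf stage, then pots were flooded to 3 cm above the soil and compound was applied directly to the paddy water, with that depth kept throughout.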

[13] = test system: barnyardgrass (Echinochloa crusgalli); experiment: as above; details: 250 g ai/ha, Flood, applied to paddy water, evaluated after 13 days
Method in brief: as §2

[14] = test system: sedge, umbrella (small-flower umbrella sedge, Cyperus difformis); experiment: as above; details: 250 g ai/ha, Flood, applied to paddy water, evaluated after 13 days
Method in brief: as §2

[15] = test system: rice (Oryza sativa); experiment: as above; details: 250 g ai/ha, Flood, applied to paddy water, evaluated after 13 days
Method in brief: as §2

[16] = test system: ragweed (common ragweed, Ambrosia artemisiifolia); experiment: Test A postemergence application, visual injury rating 0-100; details: for Ragweed plant response rating (0-100): postemergence, 0 = no effect, 100 = complete control; for Ragweed plant response rating (0 to 100 scale): Postemergence
Method in brief: as §1

[17] = test system: wheat (Triticum aestivum); experiment: as above; details: for Wheat plant response rating (0-100): postemergence, 0 = no effect, 100 = complete control; for Wheat plant response rating (0 to 100 scale): Postemergence
Method in brief: as §1

[18] = test system: blackgrass (Alopecurus myosuroides); experiment: as above; details: for Blackgrass plant response rating (0-100): postemergence, 0 = no effect, 100 = complete control; for Blackgrass plant response rating (0 to 100 scale): Postemergence
Method in brief: as §1

[19] = test system: corn (Zea mays); experiment: as above; details: for Corn plant response rating (0-100): postemergence, 0 = no effect, 100 = complete control; for Corn plant response rating (0 to 100 scale): Postemergence
Method in brief: as §1

[20] = test system: ryegrass, Italian (italian ryegrass, Lolium multiflorum); experiment: as above; details: for Ryegrass, Italian plant response rating (0-100): postemergence, 0 = no effect, 100 = complete control; for Ryegrass, Italian plant response rating (0 to 100 scale): Postemergence
Method in brief: as §1

[21] = test system: palmer (palmer amaranth, palmer pigweed, Amaranthus palmeri); experiment: as above
Method in brief: as §1

[22] = test system: horseweed (Erigeron canadensis); experiment: as above; details: for Horseweed plant response rating (0-100): postemergence, 0 = no effect, 100 = complete control; for Horseweed plant response rating (0 to 100 scale): Postemergence
Method in brief: as §1

[23] = test system: green foxtail (Setaria viridis); experiment: as above; details: for Foxtail, Green plant response rating (0-100): postemergence, 0 = no effect, 100 = complete control; for Foxtail, Green plant response rating (0 to 100 scale): Postemergence
Method in brief: as §1

[24] = test system: kochia (Bassia scoparia); experiment: as above; details: for Kochia plant response rating (0-100): postemergence, 0 = no effect, 100 = complete control; for Kochia plant response rating (0 to 100 scale): Postemergence
Method in brief: as §1

[25] = test system: oat, wild (wild oat, Avena fatua); experiment: as above; details: for Oat, Wild plant response rating (0-100): postemergence, 0 = no effect, 100 = complete control; for Oat, Wild plant response rating (0 to 100 scale): Postemergence
Method in brief: as §1

[26] = test system: barnyardgrass (Echinochloa crus-galli); experiment: as above; details: for Barnyardgrass plant response rating (0-100): postemergence, 0 = no effect, 100 = complete control; for Barnyardgrass plant response rating (0 to 100 scale): Postemergence
Method in brief: as §1

[27] = test system: soybean (Glycine max); experiment: as above; details: for Soybean plant response rating (0-100): postemergence, 0 = no effect, 100 = complete control; for Soybean plant response rating (0 to 100 scale): Postemergence
Method in brief: as §1

[28] = 62 g ai/ha, 0 = no effect, 100 = complete control
[29] = 16 g ai/ha, greenhouse 10 days, 0 no effect, 100 complete control
[30] = 31 g ai/ha, 0 = no effect, 100 = complete control
[31] = 125 g ai/ha, 0 = no effect, 100 = complete control
[32] = 125 g ai/ha, 10 days, 0 is no effect, 100 is complete control

CC1(C(=O)NC2CC=C(C(=O)O)C2)CN(c2cc(F)cc(Cl)c2)C(=O)O1 (stereo not shown) [Compound 159]
Ragweed plant response rating ([1]; 16 g ai/ha, 0 to 100 scale): 0
Ragweed plant response rating (0-100) [1, 28]: 0
Wheat plant response rating ([2]; 16 g ai/ha, 0 to 100 scale): 50
Wheat plant response rating (0-100) [2, 28]: 90
Blackgrass plant response rating ([3]; 16 g ai/ha, 0 to 100 scale): 0
Blackgrass plant response rating (0-100) [3, 28]: 0
Corn plant response rating ([4]; 16 g ai/ha, 0 to 100 scale): 20
Corn plant response rating (0-100) [4, 28]: 50
Ryegrass, Italian plant response rating ([5]; 16 g ai/ha, 0 to 100 scale): 30
Ryegrass, Italian plant response rating (0-100) [5, 28]: 90
Pigweed, Palmer plant response rating ([6]; 16 g ai/ha, 0 to 100 scale): 30
Pigweed, Palmer plant response rating (0-100) [6, 28]: 100
Foxtail, Green plant response rating ([7]; 16 g ai/ha, 0 to 100 scale): 20
Foxtail, Green plant response rating (0-100) [7, 28]: 100
Kochia plant response rating ([8]; 16 g ai/ha, 0 to 100 scale): 0
Kochia plant response rating (0-100) [8, 28]: 90
Oat, Wild plant response rating ([9]; 16 g ai/ha, 0 to 100 scale): 0
Oat, Wild plant response rating (0-100) [9, 28]: 20
Barnyardgrass plant response rating ([10]; 16 g ai/ha, 0 to 100 scale): 0
Barnyardgrass plant response rating (0-100) [10, 28]: 80
Soybean plant response rating ([11]; 16 g ai/ha, 0 to 100 scale): 0
Soybean plant response rating (0-100) [11, 28]: 50
Plant response rating, Ducksalad (0 to 100 scale, 0 is no effect and 100 is complete control) [12]: 100
Plant response rating, Barnyardgrass (0 to 100 scale, 0 is no effect and 100 is complete control) [13]: 95
Plant response rating, Sedge, Umbrella (0 to 100 scale, 0 is no effect and 100 is complete control) [14]: 100
Plant response rating, Rice (0 to 100 scale, 0 is no effect and 100 is complete control) [15]: 55
Ragweed plant response rating (0-100) ([16]; 62 g ai/ha, 10 days): 70
Ragweed plant response rating (0 to 100 scale) [16, 29]: 40
Wheat plant response rating (0-100) ([17]; 62 g ai/ha, 10 days): 90
Wheat plant response rating (0 to 100 scale) [17, 29]: 30
Blackgrass plant response rating (0-100) ([18]; 62 g ai/ha, 10 days): 90
Blackgrass plant response rating (0 to 100 scale) [18, 29]: 80
Corn plant response rating (0-100) ([19]; 62 g ai/ha, 10 days): 100
Corn plant response rating (0 to 100 scale) [19, 29]: 100
Ryegrass, Italian plant response rating (0-100) ([20]; 62 g ai/ha, 10 days): 100
Ryegrass, Italian plant response rating (0 to 100 scale) [20, 29]: 60
Pigweed, Palmer plant response rating (0-100) ([21]; 62 g ai/ha, postemergence, 10 days, 0 = no effect, 100 = complete control): 90
Pigweed, Palmer plant response rating (0 to 100 scale) ([21]; Postemergence, 16 g ai/ha, greenhouse 10 days, 0 no effect, 100 complete control): 80
Horseweed plant response rating (0-100) ([22]; 62 g ai/ha, 10 days): 80
Horseweed plant response rating (0 to 100 scale) [22, 29]: 50
Foxtail, Green plant response rating (0-100) ([23]; 62 g ai/ha, 10 days): 90
Foxtail, Green plant response rating (0 to 100 scale) [23, 29]: 70
Kochia plant response rating (0-100) ([24]; 62 g ai/ha, 10 days): 80
Kochia plant response rating (0 to 100 scale) [24, 29]: 70
Oat, Wild plant response rating (0-100) ([25]; 62 g ai/ha, 10 days): 30
Oat, Wild plant response rating (0 to 100 scale) [25, 29]: 30
Barnyardgrass plant response rating (0-100) ([26]; 62 g ai/ha, 10 days): 100
Barnyardgrass plant response rating (0 to 100 scale) [26, 29]: 100
Soybean plant response rating (0-100) ([27]; 62 g ai/ha, 10 days): 80
Soybean plant response rating (0 to 100 scale) [27, 29]: 80

COC(=O)C1CCC(NC(=O)C2(C)CN(c3cc(F)cc(F)c3)C(=O)O2)C1 (stereo not shown) [Compounds 10]
Ragweed plant response rating (0-100) [1, 30]: 0
Ragweed plant response rating (0 to 100 scale) [1, 31]: 0
Wheat plant response rating (0-100) [2, 30]: 90
Wheat plant response rating (0 to 100 scale) [2, 31]: 90
Blackgrass plant response rating (0-100) [3, 30]: 30
Blackgrass plant response rating (0 to 100 scale) [3, 31]: 90
Corn plant response rating (0-100) [4, 30]: 0
Corn plant response rating (0 to 100 scale) [4, 31]: 70
Ryegrass, Italian plant response rating (0-100) [5, 30]: 10
Ryegrass, Italian plant response rating (0 to 100 scale) [5, 31]: 90
Amaranth, Palmer plant response rating (0-100) [6, 30]: 0
Amaranth, Palmer plant response rating (0 to 100 scale) [6, 31]: 40
Foxtail, Green plant response rating (0-100) [7, 30]: 0
Foxtail, Green plant response rating (0 to 100 scale) [7, 31]: 90
Kochia plant response rating (0-100) [8, 30]: 20
Kochia plant response rating (0 to 100 scale) [8, 31]: 90
Oat, Wild plant response rating (0-100) [9, 30]: 50
Oat, Wild plant response rating (0 to 100 scale) [9, 31]: 80
Barnyardgrass plant response rating (0-100) [10, 30]: 10
Barnyardgrass plant response rating (0 to 100 scale) [10, 31]: 90
Soybean plant response rating (0-100) [11, 30]: 10
Soybean plant response rating (0 to 100 scale) [11, 31]: 50
Plant response rating, Ducksalad (0 to 100 scale, 0 is no effect and 100 is complete control) [12]: 100
Plant response rating, Barnyardgrass (0 to 100 scale, 0 is no effect and 100 is complete control) [13]: 50
Plant response rating, Sedge, Umbrella (0 to 100 scale, 0 is no effect and 100 is complete control) [14]: 100
Plant response rating, Rice (0 to 100 scale, 0 is no effect and 100 is complete control) [15]: 10
Ragweed plant response rating (0-100) ([16]; 31 g ai/ha, 10 days): 0
Ragweed plant response rating (0 to 100 scale) [16, 32]: 0
Wheat plant response rating (0-100) ([17]; 31 g ai/ha, 10 days): 80
Wheat plant response rating (0 to 100 scale) [17, 32]: 90
Blackgrass plant response rating (0-100) ([18]; 31 g ai/ha, 10 days): 50
Blackgrass plant response rating (0 to 100 scale) [18, 32]: 90
Corn plant response rating (0-100) ([19]; 31 g ai/ha, 10 days): 40
Corn plant response rating (0 to 100 scale) [19, 32]: 100
Ryegrass, Italian plant response rating (0-100) ([20]; 31 g ai/ha, 10 days): 60
Ryegrass, Italian plant response rating (0 to 100 scale) [20, 32]: 80
Amaranth, Palmer plant response rating (0-100) ([21]; 31 g ai/ha, postemergence, 10 days, 0 = no effect, 100 = complete control): 10
Amaranth, Palmer / Pigweed, Palmer plant response rating (0 to 100 scale) ([21]; Postemergence, 125 g ai/ha, 10 days, 0 is no effect, 100 is complete control): 80
Horseweed plant response rating (0-100) ([22]; 31 g ai/ha, 10 days): 30
Horseweed plant response rating (0 to 100 scale) [22, 32]: 40
Foxtail, Green plant response rating (0-100) ([23]; 31 g ai/ha, 10 days): 20
Foxtail, Green plant response rating (0 to 100 scale) [23, 32]: 90
Kochia plant response rating (0-100) ([24]; 31 g ai/ha, 10 days): 20
Kochia plant response rating (0 to 100 scale) [24, 32]: 70
Oat, Wild plant response rating (0-100) ([25]; 31 g ai/ha, 10 days): 90
Oat, Wild plant response rating (0 to 100 scale) [25, 32]: 90
Barnyardgrass plant response rating (0-100) ([26]; 31 g ai/ha, 10 days): 60
Barnyardgrass plant response rating (0 to 100 scale) [26, 32]: 100
Soybean plant response rating (0-100) ([27]; 31 g ai/ha, 10 days): 50
Soybean plant response rating (0 to 100 scale) [27, 32]: 70
